In patent publication US20250186461A1, “METHODS AND COMPOSITIONS FOR TREATING AND/OR PREVENTING HERNIAS” (Northwestern University, priority 2023, published 2025):
Entries after “also recorded” stand apart in the source; their conditions may differ.

What was measured:
[1] = system: LAM primary fibroblasts from Arom^hum mice; test: mRNA levels of P4/PGR-responsive and fibrotic genes in LAM primary fibroblasts; format: cell-based, mouse
[2] = long-term use; cited from earlier work
[3] = biological target: T1, glucocorticoid receptor (GR) (Homo sapiens, UniProt P04150); conditions: cited from earlier work
T1 sequence (P04150 1-777): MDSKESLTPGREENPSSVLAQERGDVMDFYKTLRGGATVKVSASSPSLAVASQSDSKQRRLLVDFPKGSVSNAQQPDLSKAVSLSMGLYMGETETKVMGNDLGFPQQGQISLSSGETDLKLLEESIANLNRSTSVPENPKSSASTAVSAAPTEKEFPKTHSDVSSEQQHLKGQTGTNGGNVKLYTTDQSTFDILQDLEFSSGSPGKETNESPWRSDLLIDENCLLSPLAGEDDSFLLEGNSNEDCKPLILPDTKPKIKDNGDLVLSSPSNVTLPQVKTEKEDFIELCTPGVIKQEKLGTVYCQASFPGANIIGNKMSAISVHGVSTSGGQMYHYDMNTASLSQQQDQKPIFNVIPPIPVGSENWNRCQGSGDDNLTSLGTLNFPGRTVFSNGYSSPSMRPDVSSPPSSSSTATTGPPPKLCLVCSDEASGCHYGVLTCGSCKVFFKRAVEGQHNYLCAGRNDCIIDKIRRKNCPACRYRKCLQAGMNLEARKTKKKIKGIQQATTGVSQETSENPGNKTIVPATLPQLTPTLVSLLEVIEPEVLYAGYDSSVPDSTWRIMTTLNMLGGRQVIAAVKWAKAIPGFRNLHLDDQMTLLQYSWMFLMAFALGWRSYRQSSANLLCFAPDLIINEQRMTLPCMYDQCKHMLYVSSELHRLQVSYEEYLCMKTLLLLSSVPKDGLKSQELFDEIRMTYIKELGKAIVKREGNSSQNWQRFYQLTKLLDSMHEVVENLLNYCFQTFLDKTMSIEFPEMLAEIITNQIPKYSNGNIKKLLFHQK

aromatase enzyme = biological target: T2, aromatase enzyme (Homo sapiens, UniProt P11511); conditions: cited from earlier work
T2 sequence (P11511 1-503): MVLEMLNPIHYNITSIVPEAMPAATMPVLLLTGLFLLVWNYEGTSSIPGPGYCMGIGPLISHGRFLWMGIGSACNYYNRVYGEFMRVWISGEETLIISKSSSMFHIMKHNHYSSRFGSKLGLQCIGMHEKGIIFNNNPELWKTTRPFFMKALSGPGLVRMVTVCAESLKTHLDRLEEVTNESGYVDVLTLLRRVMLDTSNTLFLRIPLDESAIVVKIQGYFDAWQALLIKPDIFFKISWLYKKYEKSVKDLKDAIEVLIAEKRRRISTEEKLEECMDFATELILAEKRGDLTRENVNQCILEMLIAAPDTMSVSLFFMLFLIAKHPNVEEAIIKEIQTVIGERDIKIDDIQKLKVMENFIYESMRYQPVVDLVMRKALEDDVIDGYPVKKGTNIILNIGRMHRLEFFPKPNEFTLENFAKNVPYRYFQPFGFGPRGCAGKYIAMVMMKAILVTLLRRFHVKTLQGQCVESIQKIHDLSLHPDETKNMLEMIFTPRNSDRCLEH

[4] = system: LAM fibroblasts from Arom^hum mice; test: Click-iT EdU proliferation assay; format: cell-based, mouse; conditions: 1 μM antagonist; E2 (10 nM)+R5020 (100 nM)
PGR = biological target: T3, PGR (Homo sapiens, UniProt P06401); conditions: cited from earlier work
T3 sequence (P06401 1-933): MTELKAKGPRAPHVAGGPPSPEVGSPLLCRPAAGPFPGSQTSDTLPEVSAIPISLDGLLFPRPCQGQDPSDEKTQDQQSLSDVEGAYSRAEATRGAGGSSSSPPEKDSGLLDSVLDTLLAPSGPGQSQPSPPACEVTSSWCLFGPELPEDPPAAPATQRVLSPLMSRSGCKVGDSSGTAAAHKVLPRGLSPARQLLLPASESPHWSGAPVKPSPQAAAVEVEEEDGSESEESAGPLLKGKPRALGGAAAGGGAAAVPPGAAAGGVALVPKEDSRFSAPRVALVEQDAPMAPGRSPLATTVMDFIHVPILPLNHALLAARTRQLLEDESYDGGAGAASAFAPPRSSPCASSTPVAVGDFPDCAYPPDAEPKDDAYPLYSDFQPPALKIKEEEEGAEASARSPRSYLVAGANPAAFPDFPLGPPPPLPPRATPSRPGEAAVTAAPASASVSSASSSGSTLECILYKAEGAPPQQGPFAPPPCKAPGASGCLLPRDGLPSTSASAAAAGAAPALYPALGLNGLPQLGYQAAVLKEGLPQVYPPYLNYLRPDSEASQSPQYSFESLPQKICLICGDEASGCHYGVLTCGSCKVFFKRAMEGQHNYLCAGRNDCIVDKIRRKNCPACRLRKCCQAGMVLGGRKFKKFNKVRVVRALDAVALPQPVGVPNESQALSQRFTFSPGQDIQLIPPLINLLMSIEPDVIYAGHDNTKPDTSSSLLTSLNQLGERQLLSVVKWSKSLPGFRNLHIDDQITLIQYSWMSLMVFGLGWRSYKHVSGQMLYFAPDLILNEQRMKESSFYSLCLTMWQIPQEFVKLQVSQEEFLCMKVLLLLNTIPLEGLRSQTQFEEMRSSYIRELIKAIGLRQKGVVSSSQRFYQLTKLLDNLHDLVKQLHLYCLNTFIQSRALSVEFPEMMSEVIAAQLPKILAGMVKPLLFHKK

## CN(C)c1ccc([C@H]2C[C@]3(C)[C@@H](CC[C@]3(O)CCCO)[C@@H]3CCC4=CC(=O)CCC4=C32)cc1 [ZK299, Onapristone]
[1]; 1 μM antagonist, pretreated 2 h before E2 (10 nM)+R5020 (100 nM)
  E2+R5020-induced expression of P4/PGR-responsive (Greb1, Cyp7b1) and fibrotic genes (Adamtsl1, Col1a1, Col14a1): significantly decreased; also recorded: strongest inhibition
[1]; pretreatment with 1 μM antagonist
  E2+R5020-stimulated expression of Col1a1 and Col12a1, blockade: blocked
[2]
  liver toxicity: significant liver toxicity
[3]
  anti-glucocorticoid activity: minimal or no antiglucocorticoid properties
Aromatase enzyme
  inhibition of aromatase enzyme activity: weak aromatase inhibitor
[4]
  inhibition of E2+R5020-stimulated LAM fibroblast proliferation: inhibited; also recorded: blocked
PGR
  P4/PGR antagonism and PGR selectivity: highly PGR-selective pure P4 antagonist
